What was measured:
[1] = system: men with mild to moderate androgenic alopecia (AGA); assay: Phase 2 multicenter trial, scalp hair growth efficacy (DIA: TAHC, TAHW, TAHD; SSA, IGA, GPR); type: in vivo, human
Description: (§1) In a phase 2 multicenter trial, men 18-49 years of age with mild to moderate androgenic alopecia (AGA) were randomized in a 1:1:1:1:1 ratio to receive in a double-blind manner bimatoprost (BIM) 0.3%, 0.1%, 0.03%, or vehicle applied once daily, or open label over-the-counter minoxidil 5% solution (MIN) applied twice daily to the vertex area of the scalp for 6 months. Subjects were evaluated every 2 months during treatment and at 2 months after completing treatment. The BIM formulations used in this study were as described in Table 3 above.
The following assessments were made with digital image analysis (DIA; macrophotographs of a prespecified 1-cm^2 circular area at the anterior leading edge of the vertex thinning area of the scalp identified by microdot tattoo) using customized validated software: Target Area Hair Count (TAHC) measured in terminal hairs/cm^2; Target Area Hair Width (TAHW) measured in mm/cm^2; and, Target Area Hair Darkness (TAHD) measured in intensity units;
Co-primary efficacy endpoints measured included the change from baseline in TAHC and the SSA of change in scalp hair growth. Secondary efficacy endpoints included changes from baseline in TAHW and TAHD, and IGA/GPR of changes in scalp hair growth. […]

[2] = system: men with mild to moderate androgenic alopecia (AGA); assay: Phase 2 multicenter trial, safety (treatment-related adverse events, clinical laboratory, vital signs, ECGs, physical examinations); type: in vivo, human
Description: as §1
Safety measures included adverse event monitoring, local tolerability assessment, clinical laboratory testing, vital signs, 12-lead electrocardiograms (ECGs), and physical examinations.
Percent changes from baseline in TAHC, TAHW, and TAHD were analyzed using the Wilcoxon rank-sum test. Frequency distributions of SSA, IGA, and GPR scores were analyzed using a Cochran-Mantel-Haenszel test stratified for age group (18-34 vs 35-49 years), and missing data were imputed to month 6 using a last-observation-carried-forward approach. Safety measures were evaluated in all subjects who received study medication; among-group and pairwise comparisons of the incidence of adverse events were performed using a chi-square or Fisher's exact test

For `CCNC(=O)CCC/C=C\C[C@@H]1[C@@H](/C=C/[C@@H](O)CCc2ccccc2)[C@H](O)C[C@@H]1O` [bimatoprost, cyclopentane N-ethyl heptanamide-5-cis-2-(3α-hydroxy-5-phenyl-1-trans-pentenyl)-3,5-dihy-droxy, [1α,2β,3α,5α]], the “distribution of SSA (Subject Self Assessment) scores versus vehicle, in words” value ([1]; month 6) was “did not differ”, the “changes in TAHC and TAHW versus vehicle, in words” value ([1]; two months after stopping treatment) was “no longer significantly different from vehicle” and the “incidence of treatment-related adverse events, in words” value ([2]; compared with vehicle and minoxidil) was “slightly higher with bimatoprost compared with vehicle, but lower than the rate with minoxidil”. For the same compound, the “changes in clinical laboratory parameters, vital signs, ECGs, or physical examinations, in words” value ([2]; human, in vivo) was “no clinically meaningful or dose-dependent changes” and the “safety and tolerability profile, in words” value ([2]; human, in vivo) was “consistent with that of an established topical treatment for scalp hair growth”.

Source: patent US9849140B2, “Topical compositions comprising bimatoprost and methods for stimulating hair growth therewith” (Allergan, Inc., priority 2009, dated 2017)
